Test results as given in ChEMBL document CHEMBL3784936, “Classification of matching molecular series on the basis of SAR phenotypes and structural relationships” (Medchemcomm, 2016).

What was measured:
Oxytocin receptor = target: T1, Oxytocin receptor (Homo sapiens, UniProt P30559); assay: Inhibition of oxytocin receptor (unknown origin)
T1 sequence (P30559 whole entry): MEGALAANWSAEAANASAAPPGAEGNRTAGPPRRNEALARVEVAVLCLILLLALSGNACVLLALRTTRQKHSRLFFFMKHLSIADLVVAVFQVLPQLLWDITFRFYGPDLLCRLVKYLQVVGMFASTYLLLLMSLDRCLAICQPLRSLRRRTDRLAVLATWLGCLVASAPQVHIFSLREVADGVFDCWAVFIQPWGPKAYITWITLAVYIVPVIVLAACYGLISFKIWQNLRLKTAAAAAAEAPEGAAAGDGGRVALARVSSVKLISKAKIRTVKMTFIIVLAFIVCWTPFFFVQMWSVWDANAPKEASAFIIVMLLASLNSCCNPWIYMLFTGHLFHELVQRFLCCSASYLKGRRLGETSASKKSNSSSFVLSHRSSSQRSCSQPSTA

Adenosine receptor A3 = target: T2, Adenosine receptor A3 (Homo sapiens, UniProt P0DMS8); assay: Inhibition of adenosine A3 receptor (unknown origin)
T2 sequence (P0DMS8 whole entry): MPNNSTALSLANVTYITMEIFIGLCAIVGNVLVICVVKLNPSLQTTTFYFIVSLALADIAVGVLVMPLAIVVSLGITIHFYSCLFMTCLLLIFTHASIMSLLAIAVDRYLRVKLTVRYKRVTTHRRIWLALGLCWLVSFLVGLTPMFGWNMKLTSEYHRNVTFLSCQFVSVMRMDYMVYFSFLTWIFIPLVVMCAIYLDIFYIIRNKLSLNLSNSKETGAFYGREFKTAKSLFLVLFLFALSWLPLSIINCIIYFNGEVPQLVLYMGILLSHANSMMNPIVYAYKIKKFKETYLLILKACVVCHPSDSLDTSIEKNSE

SMILES	Ki (Oxytocin receptor)	Ki (Adenosine receptor A3)
CCCCOc1ccc(S(=O)(=O)N(CC(=O)N/N=C2\C(=O)Nc3ccccc32)c2ccc(Cl)cc2)cc1	17.8 nM	–
Nc1ncnc2c1ncn2[C@@H]1O[C@H](C(=O)NC2CC2)[C@@H](O)[C@H]1O	–	178 nM
